# Assay results as given in patent US20200121704A1, “METHODS FOR TREATING HYPERTENSION AND ARTERIAL STIFFNESS” (THE REGENTS OF THE UNIVERSITY OF COLORADO, A BODY CORPORATE, priority 2017, published 2020).
# How the values were obtained:
# Assay type in all cases: in vivo, human
# [1] = tested on: healthy middle-aged and older adults; assay: Treatment-emergent adverse events and tolerability, randomized double blinded placebo controlled crossover study
# Procedure: The inventors hypothesized that oral supplementation with the nicotinamide adenine dinucleotide (NAD+) increasing compound, nicotinamide riboside (NR) would reduce blood pressure (BP) and aortic pulse wave velocity (aPWV, a measure of large elastic artery stiffness). This hypothesis was tested in healthy middle-aged and older human adults (65±2 yrs, n=24) in a randomized, placebo-controlled crossover study.
# (§1) Sixty subjects were consented for this study. This study was conducted in the Integrative Physiology of Aging Laboratory and the Clinical and Translational Research Center (CTRC) at the University of Colorado Boulder. All blood assays were performed at either Boulder Community Hospital or the University of Colorado Denver Anschutz Medical Campus CTRC Core Laboratory. All testing sessions were performed after an overnight fast and 24-hour abstention from exercise and alcohol consumption. All subjects refrained from all prescription medications for 24 hours and over the counter medications for 48 hours prior to all testing visits.
# A randomized, double blinded, placebo controlled crossover design was implemented for this study. Healthy middle-aged and older (55-79 years) adult men and postmenopausal women were recruited from the Boulder/Denver metro area. Subjects were nonsmokers and free of clinical diseases as assessed by a medical history, physical examination, blood chemistry and resting and exercise ECG. […] Four subjects dropped out of the study prior to randomization due to time commitment and one subject was unresponsive to scheduling requests resulting in a total of 30 remaining subjects for randomization. Of these, fifteen subjects were randomized to Group A, which received placebo pills during the first 6 weeks of the study before crossing over to receive NR pills for 6 weeks. The remaining fifteen subjects were randomized to Group B, which received NR pills first followed by placebo. One subject was excluded from Group A due to a change in medication status that no longer met inclusion criteria and two subjects in Group A dropped out of the study due to a complaint of side effects. Two subjects were excluded from Group B due to a change in health or medication status that no longer met inclusion criteria and one subject dropped out of Group B due to a broken ankle, resulting in a total of 24 subjects who completed the trial (FIG. 1). These subjects were well matched by age, sex and baseline characteristics between groups and all baseline values were within normal clinical ranges, as shown in Table 1:
# 14 treatment-emergent adverse events (AEs) were reported by 7 of the 30 participants enrolled in the study.
# [2] = Comprehensive metabolic panel (blood chemistry, renal function, liver enzymes)
# Procedure: as §1
# (§2) Clinical laboratory values were obtained from blood samples collected at the end of each intervention phase in 21 subjects. Complete blood work was not obtained in three subjects due to a failed catheterization during at least one of the testing phases.
# Total lipid panel = assay: Total lipid panel
# Procedure: as §1, §2
# [3] = NR condition, end of 6-week phase, mean ± SEM, 21 subjects
# [4] = end of 6-week phase, mean ± SEM, 21 subjects
structure (smiles),measurement,setting,value
"NC(=O)c1ccc[n+]([C@@H]2O[C@H](CO)[C@@H](O)[C@H]2O)c1 [NR, nicotinamide riboside]","Drowsiness, # events","[1]; NR condition, 6 weeks oral",0 (0)
same,"Drowsiness, # events/patient","[1]; NR condition, 6 weeks oral",0 (0)
same,"Fainting, # events","[1]; NR condition, 6 weeks oral",0 (0)
same,"Fainting, # events/patient","[1]; NR condition, 6 weeks oral",0 (0)
same,"Flushing/Hot flashes, # events","[1]; NR condition, 6 weeks oral",1 (1)
same,"Flushing/Hot flashes, # events/patient","[1]; NR condition, 6 weeks oral",1 (1)
same,"Headache, # events","[1]; NR condition, 6 weeks oral",0 (0)
same,"Headache, # events/patient","[1]; NR condition, 6 weeks oral",0 (0)
same,"Increased Bruising, # events","[1]; NR condition, 6 weeks oral",1 (1)
same,"Increased Bruising, # events/patient","[1]; NR condition, 6 weeks oral",1 (1)
same,"Leg cramps, # events","[1]; NR condition, 6 weeks oral",1 (1)
same,"Leg cramps, # events/patient","[1]; NR condition, 6 weeks oral",1 (1)
same,"Nausea, # events","[1]; NR condition, 6 weeks oral",1 (1)
same,"Nausea, # events/patient","[1]; NR condition, 6 weeks oral",1 (1)
same,"Skin Rash, # events","[1]; NR condition, 6 weeks oral",1 (1)
same,"Skin Rash, # events/patient","[1]; NR condition, 6 weeks oral",1 (1)
same,Severity of adverse events,[1]; all AEs,mild in severity
same,Tolerability,[1]; at the dose tested,well tolerated
same,Severe adverse events,[1]; during the study,No severe adverse events occurred
same,Association of flushing with supplementation,[1]; flushing reported in both placebo and NR conditions,unlikely associated with NR supplementation
same,ALT (SGPT),[2]; [3],30.8 ± 2.4 IU/L
same,AST (SGOT),[2]; [3],32.1 ± 1.5 IU/L
same,BUN,[2]; [3],17 ± 1 mg/dL
same,CO2,[2]; [3],26 ± 1 mEq/L
same,albumin,[2]; [3],3.6 ± 0.1 g/dL
same,alk phosphatase,[2]; [3],63.4 ± 2.9 IU/L
same,calcium,[2]; [3],9.2 ± 0.1 mg/dL
same,chloride,[2]; [3],104 ± 1 mEq/L
same,creatinine,[2]; [3],0.9 ± 0.03 mg/dL
same,eGFR,[2]; [3],74 ± 3 ml/min/1.73 m^2
same,glucose,[2]; [3],87 ± 1 mg/dL
same,potassium,[2]; [3],4.2 ± 0.1 mEq/L
same,sodium,[2]; [3],139 ± 1 mEq/L
same,total bilirubin,[2]; [3],0.8 ± 0.1 mg/dL
same,total protein,[2]; [3],6.3 ± 0.1 g/dL
same,Difference between treatment conditions for blood chemistry (including markers of renal function and liver enzymes),[2]; NR vs placebo,No meaningful differences
same,Difference between treatment conditions for blood lipid profiles,Total lipid panel; NR vs placebo,No meaningful differences
same,HDL-C,Total lipid panel; [4],60 ± 5 mg/dL
same,LDL-C,Total lipid panel; [4],94 ± 5 mg/dL
same,N-HDL-C,Total lipid panel; [4],111 ± 6 mg/dL
same,Total cholesterol,Total lipid panel; [4],171 ± 6 mg/dL
same,Triglycerides,Total lipid panel; [4],90 ± 14 mg/dL
same,VLDL-C,Total lipid panel; [4],17 ± 3 mg/dL
